Entries after “also recorded” stand apart in the source; their conditions may differ.

Series [1] concerns PKD1−/− and PKD2−/− mutant organoids. Kind of series: Prophylactic effect of myosin activators on cyst formation in PKD organoids in suspension. Format: cell-based, human. From the text:
(§1) Cyst formation. In adherent cultures (untreated), ‘cysts’ were identified as large, balloon-like, translucent structures that swayed in response to agitation. Flat rings and dilated tubules were not counted as cysts and occasionally appeared even in non-PKD controls. […] Wells were imaged using a Nikon TiE inverted wide-field microscope and cysts were quantified using ImageJ cell counter. To generate large cysts in suspension, adherent organoids were microdissected with a 23-gauge syringe needle from 24-well plates on an inverted phase-contrast microscope, and carefully transferred using a transfer pipette into a low-adhesion 6-well plate (Corning) containing 2 ml RB. The organoids were isolated on the twenty-first day of differentiation, before cysts formed. RB media was changed by gravity every three days, and cystogenesis was assessed at two weeks after replating.
EMD was efficient at rescuing cyst formation at the lowest dose tested (3 μM) and worked in both PKD1^−/− and PKD2^−/− mutant organoids.

For another series, the system named is myosin. As to conditions: cited from earlier work; for effect: Table 5 listing.
Series [2] deals with PKD organoids or isogenic controls. Kind of series: Cyst formation in adherent kidney organoids treated with forskolin or 8-Br-cAMP. Format: cell-based, human.
Text: as §1

Series [3] deals with Polycystic Kidney Disease (PKD) patients. As to conditions: cited from earlier work.
A further series deals with cell stiffness. The conditions noted are these: cited from earlier work.
For series [4], the system named is PKD organoids (mutations in polycystin-1). Description: Small-scale screen of PKD cystogenesis modifiers in 96-well organoid plates. It counts as cell-based, human. Also noted: dose or concentration left out as unconfirmed. As to conditions: 7 days, blebbistatin at highest concentration. The procedure:
(§2) Cyst generation. PKD1^−/− and PKD2^−/− hPSCs or isogenic controls were differentiated in microwell plates in adherent cultures. Forskolin (Sigma) was added to microwell plates during automated liquid handling on the 21st day after differentiation. Large swellings rapidly developed and grew to full size over 72 hours. Cysts were identified by comparing images with captured with high-content imaging prior to forskolin treatment, and after 72 hours. Screening of PKD cystogenesis was performed in duplicate in 96-well plates to provide sufficient space and numbers of organoids per well. Factors were plated at four different concentrations for seven days, and the organoids were scanned visually on a phase-contrast microscope for increased or decreased cyst formation. […] Cyst diameters were measured using NIS Elements imaging software (Nikon). […]

A further series relates to PKD organoids. Kind of series: Blebbistatin cystogenesis in suspension culture, PKD organoids. Format: cell-based, human. The arrangement: time after which PKD organoids formed cysts: dose or concentration left out as unconfirmed. As for the experimental part:
Cyst generation. […] Forskolin (Sigma) was added to microwell plates during automated liquid handling on the 21st day after differentiation. Large swellings rapidly developed and grew to full size over 72 hours. Cysts were identified by comparing images with captured with high-content imaging prior to forskolin treatment, and after 72 hours. Screening of PKD cystogenesis was performed in duplicate in 96-well plates to provide sufficient space and numbers of organoids per well. Factors were plated at four different concentrations for seven days, and the organoids were scanned visually on a phase-contrast microscope for increased or decreased cyst formation. […] To test cystogenesis in suspension, adherent organoids were microdissected with a 23-gauge syringe needle from 24-well plates on an inverted phase-contrast microscope, and transferred into a low-adhesion 6-well plate (Corning) containing 2 mL RB or 2 mL RB with […] blebbistatin. Organoids were imaged daily on a Nikon Ti Inverted Widefield microscope for a period of 7 days. Cyst diameters were measured using NIS Elements imaging software (Nikon). Contiguous microscopic fields were collected using an automated stage and stitched together using NIS Elements software to generate large images of wells or plates.

For series [5], the system named is control organoids of identical genetic background that lacked PKD mutations. Description: Blebbistatin cystogenesis in suspension culture, control organoids. It counts as cell-based, human. As to conditions: 3 days after treatment. The procedure:
as §2, with “PKD1^−/− and PKD2^−/− hPSCs or isogenic controls were differentiated in microwell plates in adherent cultures.” left out

Series [6] concerns endothelial cells (ECs) in kidney organoid cultures.
Method: Kidney differentiation in microwell plates. hPSCs were dissociated with Accutase (Stem Cell Technologies) and plated onto microwell plates pre-coated with GelTrex in mTeSR1 supplemented with 10 mMRho-kinase inhibitor Y27632 (StemGent). The media was replaced with mTeSR1+1.5% GelTrex at 16 hours, 12 mMCHIR99021 in Advanced RPMI+Glutamax (Life Technologies) at 60 hours, and RB (Advanced RPMI+Glutamax+B27 Supplement, from Life Technologies) at 96 hours. […] RB was changed two days later and every three days thereafter. For experiments involving modulation of endothelial cell media was supplemented with VEGF165 (Peprotech, 12.5 to 200 ng/ml). Alternatively (Protocol B, FIG. 31A), the protocol described by Takasato et al. was adapted for adherent culture: undifferentiated hPSCs were plated overnight and treated the following morning with 8 mM CHIR99021 in APEL media (StemCell Technologies) for 48-72 hr, 30 ng/ml FGF9 (Peprotech)+1 mg/ml heparin (StemCellTechnologies) in APEL for 96 hr, and cultured thereafter in APEL, replaced every three days. Alternatively, to generate endothelial cells without kidney organoids, 100,000 hPSCs/cm2 were plated in mTeSR1+10 mM Y27632+1 mM CHIR99021, replaced with RPMI+B27 minus insulin+1.5% Geltrex+50 ng/mL Activin A (R&D) at 24 h, RPMI+B27 minus insulin+40 ng/mL BMP4 (Peprotech)+1 mL CHIR99021 at 61 h, and StemPro 34 (Thermo Fisher Scientific)+2 mM Glutamax+50 mg/mL ascorbic acid (Sigma)+10 ng/mL BMP4+5 ng/mL bFGF (Peprotech)+300 ng/mL VEGF165 at 85 h for a 72-hour incubation.
Immunohistochemistry. For confocal microscopy, kidney organoids were differentiated on 96-well No, 1.5 coverslip glass-bottom plates (Mat-Tek). To fix, an equal volume of 8% paraformaldehyde (Electron Microscopy Sciences) was added to the culture media (4% final concentration) for 15 minutes at room temperature. […] Fluorescence images were captured using an inverted Nikon epifluorescence Eclipse Ti or A1R confocal microscope. […]
Setting [7] is: scRNA-seq, in the presence of VEGF.

As for `COC(=O)N1CCN(Cc2cccc(NC(=O)Nc3ccc(C)nc3)c2F)CC1` [omecamtiv mercabil], the “effect on PKD organoid cysts” value in [1] was “the same effect is not seem; also recorded: do not affect PKD cysts”. Further, the “effect on cyst growth in PKD1−/− organoids” value in [1] (20 μM, highest dose tried (FIG. 22)) is “ineffective at the highest dose that was tried”. The effect entry in the series on myosin was “↑ cardiac myosin S1”.

With `Nc1ncnc2c1nc(Br)n2[C@@H]1O[C@@H]2COP(=O)(O)O[C@H]2[C@H]1O` [8-Br-cAMP], in series [2] (PKD or control organoids, adherent), the “doses that did not produce cysts” value is under 1 mM. Moreover, the “swelling of adherent organoids into cyst-like structures” value in [2] (adherent cultures, added on day 21 of differentiation) is “induced swelling, although the effect was much less pronounced”.

Turning to `Cc1ccccc1C(=O)Nc1ccc(C(=O)N2CCCC(O)c3cc(Cl)ccc32)c(C)c1` (stereo not shown) [Tolvaptan], in series [3] (PKD patients), the “effect on PKD cysts (shrinking / prevention)” value is given as “does not shrink PKD cysts or prevent them from forming”; the “improve glomerular filtration rate (GFR)” value is reported as about 1.5 ml/min/yr; the side effects result was “can damage the liver; also recorded: frequent thirst and occasional severe hepatotoxicity”; the “slow the growth of total kidney volume (TKV)” value is reported as about 3 %/yr. Also, the “effect on PKD, cyst growth” value in [3] (patients with severe disease) was 3 % year.

As for `CC(=O)c1ccc(O)cc1` [4-HAP, 4-hydroxyacetophenone], the “effect on PKD organoid cysts” value in [1] is on record as “less activity than EMD”. The “effect on cyst growth in PKD1−/− organoids” value in series [1] (300 μM (FIG. 22)) is “Positive effects”. For the same compound, in the series with myosin, the effect entry is reported as “↑ myosin IIB, IIC”; the “myosin II paralogs affected” value is “specifically affect non-muscle myosins IIB and IIC, but not IIA”. Also, in the series on cell stiffness, the “concentration range showing effects on cell stiffness” value is 5 to 50 µM.

Regarding `Cc1ccc2c(c1)C(=O)C1(O)CCN(c3ccccc3)C1=N2` (stereo not shown) [blebbistatin], the “change in cyst formation” value in series [4] is on record as “significant increase in cyst formation”. Moreover, in the series on PKD organoids (7 days of treatment, suspension), the “diameter and number of cysts” value is “Both the diameter and number of cysts were increased”. Besides, the “increase in rate of cystogenesis” value in the series on PKD organoids (PKD organoids, suspension, 3 days after treatment) is 40%; in series [5], 10%. Moreover, in the series with PKD organoids (at this concentration and time frame), the damage to organoids entry is “no damage to organoids was observed”. Further, the “time after which PKD organoids formed cysts” value in the series with PKD organoids (suspension culture, blebbistatin) turned out to be 24 h. Besides, in the series with PKD organoids (washout after 7 days of treatment), the “cyst size after removal of blebbistatin” value was “cyst size declined”.

`CNc1ccc2oc(C[C@H]3O[C@@]4(CC[C@H]3C)O[C@H]([C@H](C)C(=O)c3ccc[nH]3)[C@H](C)C[C@H]4C)nc2c1C(=O)O` [calcium ionophore]: the effect result in the series with myosin is “↑ calmodulin”.

In the case of `O=S(=O)(NCCNC/C=C/c1ccc(Br)cc1)c1cccc2cnccc12` [H-89], in the series on myosin, the effect entry is listed as “↓ PKA”.

For `CCCCC[C@H](O)/C=C/[C@@H]1[C@@H](C/C=C\CCCC(=O)O)[C@H]2CO[C@@H]1C2` [U46619], in the series with myosin, the effect entry is reported as “↑ Rho-kinase”.

Take `N#C/C(=C\c1cc(O)c(O)c(O)c1)C(=O)NCCCNC(=O)/C(C#N)=C/c1cc(O)c(O)c(O)c1` [Bis-T-23]: the effect result in the series with myosin is “↑ actin polymerization”.

As for `C[C@@H](O)[C@@H]1NC(=O)[C@H](CCCCN)NC(=O)[C@@H](Cc2c[nH]c3ccccc23)NC(=O)[C@H](Cc2ccccc2)NC(=O)[C@@H](NC(=O)[C@H](N)Cc2ccccc2)CSSC[C@@H](C(=O)N[C@H](CO)[C@@H](C)O)NC1=O` [octreotide], in series [1], the “effect on PKD organoid cysts” value is on record as “the same effect is not seem; also recorded: do not affect PKD cysts”.

On to VEGF, for which the “increase in ECs expressing CD31 and VE-cadherin” value in series [6] (VEGF added during differentiation, immunofluorescence) is given as “approximately 10 fold”. In series [6] (setting [7]), the “MCAM+ cells, share of all cells” value was 5% and the “MCAM+ cells, share of cells within the six kidney clusters” value is on record as 9.5%.

Regarding `CCCC[C@@H](C=O)NC(=O)[C@H](CC(C)C)NC(=O)OCc1ccccc1` [calpeptin], in the series with myosin, the effect result is on record as “↑ Rho-kinase”.

The values above are taken from patent publication US12320800B2, “High-throughput automation of organoids for identifying therapeutic strategies” (UNIVERSITY OF WASHINGTON, priority 2018, dated 2025).
